Source: patent publication US6916845B2, “Method for prevention and treatment of male and female sexual dysfunction” (priority 1999, dated 2005)
Like-named read-outs stand apart in the source and are kept apart here. Marks after values point to notes of the source that are not given here.

Tests used:
[1] = test system: iNOS mRNA; assay: iNOS mRNA expression in penis of castrated rat model by RT-PCR; format: in vivo; details: for Mean conc./area (iNOS) / Ratio (iNOS/β-actin): castrated, 3 months
Procedure: (§1) Male Wistar rats(300-350 g)(n=24) randomly divide into 4 Groups; Group A for control; Group B for castrated and administration normal saline; Group C for castrated and oral administration Icariin […]; Group D for castrated and oral administration Icariin (5 mg/kg) for 3 months. After observe mating behavior, the animal was killed, the penis was excised rapidly, and cut into four parts. One of them used for immuohistochemical stain, the others was socked into RNAlater and stored in −70 condition. nNOS, eNOS, iNOS mRNA were semi-quantified by RT-PCR, β-actin as a controls. Specificity of RT-PCR products was confirmed by sequencing procedure, with-assay and between-assay variation was carried out respectively.

[2] = test system: PDE4 isolated from human liver tissue; assay: Inhibition of cAMP specific PDE4, two-step radioisotope procedure; format: biochemical
Procedure: (§2) PDE5 and PDE4 were isolated from human platelets and liver tissue using a Pharmacia FPLC system and Mono Q column. The cyclic nucleotide PDE5/PDE4 activities in FPLC fractions were determined using a modification of the two-step radioisotope procedure ([^3H]GMP/[^3H]AMP).

[3] = test system: adult male rat; details: in vivo
Procedure: (§3) Twenty-four male, adult Wistar rats(weight:300-350 g) were used. After anesthetization, the left carotid artery was cannulated to monitor mean arterial pressure (MAP). Bipolar electrodes were positioned on the cavernous nerve (CN); the right cavernous body was cannulated with 26 G needle connected with Biopack MP100 to monitor ICP changes. After intracavemosal administration of 100 μl different concentration Icariin or Reserpine (10^−8M to 10^−4M) respectively, the CN was electrically stimulated (ES) 10 minutes later and ICP and MAP were monitored. In order to investigate the possible mechanism of the effect of icariin on ICP changes, 100 μl different concentration guanylate cyclase inhibitor ODQ (10^−8M-10^−4M) were intracavemosal administrated 10 minutes after Icariin (100 μl 10^−4M) administration into CC, and then the ICP was measured during erection, which was, followed the ES.

[4] = test system: cAMP formation in rabbit corpus cavernosum; assay: cAMP formation in corpus cavernosum of penis stimulated with SNP, radioimmunoassay; format: cell-based
[5] = test system: adult male rat; assay: Intracavernosal press (ICP) changes after intracavernosal administration and cavernous nerve electrical stimulation; format: in vivo; details: CN stimulation 10 minutes later
Procedure: as §3

[6] = test system: SD rat; format: in vivo; details: for LDso: once subcutaneously, after 7 days
Procedure: To investigate an acute toxicity of icariin, icariin was administered to SD rat. Total of 50 rats divide into 5 groups randomly and each group included 5 male and 5 female rats, respectively. The maximum dosage group for 3.0 g/kg, medium dosage group for 2.0 g/kg, sub-medium group for 1.0 g/kg and the minimum dosage group for 0.5 g/kg and comparative group for physiological saline solution only. Each of the drugs was once administered subcutaneously. After 7 days, it was shown that LDso of male was 1.88 g/kg and female was 1.96 g/kg.

[7] = test system: rabbit's CC smooth muscle; assay: Relaxation of PHE pre-contracted corpus cavernosum smooth muscle strips in organ chamber; format: cell-based
Procedure: Sixty adults male New Zealand white rabbits(Weight: 2.5-3.0 kg) were used. Rabbits were anesthesia with sodium pentobarbital(50 mg/kg), penis was removed and corpus cavernous tissue were carefully isolated and made into 2×2×6 mm muscle strips for isometric tension was measured in organ chamber in vitro study with polygraph(MP 100 WS:Biopac systems, USA). CC muscle strip was fixed in 10 ml organ chamber containing Tyrode solution and continuously supplied with mixed gas(95% O2 and 5% CO2) and keep temperature at 37° C. The initial resting tensions of muscle strips were set at 2 g and tissue was allowed to equilibrate for 1.5-3.0 hours. Sub-maximal contractile responses to phenylepherine(PHE 5×10^-6 M) were observed and optimal isometric tension was determined. To evaluate the relaxation effects of icariin (the other components magnoflorine, querectin, epimedin A, B and C as the controls) on CC muscle strips, investigated the relaxation effects of different dosage of icariin on muscle strips pre-contracted by PHE. And to investigate the pharmaceutical action mechanism, the effects of […] Nω-nitric-L-arginine(L-NNA), guanylate cyclase antagonist methylene blue and pyrogallol, soluble guanylate cyclase inhibitor 1H-[1,2,4]oxadiazolo[4,3,-a]quinoxalin-1-one (ODQ) on the relaxation effects of icariin on CC.

[8] = target: T1, PDE5 isolated from human platelets (Homo sapiens, UniProt O76074); assay: Inhibition of cGMP specific PDE5, two-step radioisotope procedure; format: biochemical
T1 construct: PDE5 and PDE4 were isolated from human platelets and liver tissue using a Pharmacia FPLC system and Mono Q column; from tissue; host or cells: human platelets
Procedure: as §2

[9] = test system: nNOS mRNA; assay: nNOS mRNA expression in penis of castrated rat model by RT-PCR; format: in vivo; details: for Mean conc./area (nNOS) / Ratio (nNOS/β-actin): castrated, 3 months
Procedure: as §1

[10] = test system: castrated male Wistar rats; assay: Sexual activities (mating behavior) in castrated rat model after long-term oral administration; format: in vivo; details: Group C and D, oral icariin for 3 months, n=10/12
Procedure: as §1

[11] = test system: cGMP formation in rabbit corpus cavernosum; assay: cGMP formation in corpus cavernosum of penis stimulated with SNP, radioimmunoassay; format: cell-based; details: in the presence of SNP
[12] = test system: cGMP formation in clitoris CC of female rabbits; assay: cGMP formation in CC of clitoris stimulated with SNP, radioimmunoassay; format: cell-based, rabbit

In the case of `COc1ccc(-c2oc3c(CC=C(C)C)c(O[C@@H]4O[C@H](CO)[C@@H](O)[C@H](O)[C@H]4O)cc(O)c3c(=O)c2O[C@@H]2O[C@@H](C)[C@H](O)[C@@H](O)[C@H]2O)cc1` [Icariin, icariin], the “iNOS mRNA compared to control Group B” value ([1]; Group C and D, p<0.05) is reported as “significantly increased”, the “Mean conc./area (iNOS)” value ([1]; Group C, oral Icariin (mg/kg)) is reported as 17.28 and the “Ratio (iNOS/β-actin)” value ([1]; Group C, oral Icariin (mg/kg)) is reported as 0.50*. For the same compound, the “Mean conc./area (iNOS)” value ([1]; Group D, oral Icariin 5 mg/kg) was 23.20, the “Ratio (iNOS/β-actin)” value ([1]; Group D, oral Icariin 5 mg/kg) was 0.74* and the IC50 [2] was 73.5 µM. The “influence on MAP” value [3] was “no obviously influence”, the “influence on cAMP levels” value [4] was “no significantly influenced” and the “Increase ICP” value ([5]; 100 μl 10^−4M intracavernosal) was 58.01 ± 5.78%. For the same compound, the “Increase ICP” value ([5]; 100 μl 10^−5M intracavernosal) was 30.48 ± 3.06%, the “Increase ICP” value ([5]; 100 μl 10^−6M intracavernosal) was 10.82 ± 1.06% and the “Increase ICP” value ([5]; 100 μl 10^−7M intracavernosal) was 5.53 ± 0.69%. The “acute toxicity” value ([6]; SD rat, subcutaneous) was “low toxicity”, the LDso ([6]; female SD rat) was 1960 mg/kg and the LDso ([6]; male SD rat) was 1880 mg/kg. The EC50 ([7]; Oryctolagus cuniculus, read-out: EC50 on the relaxation effects of CC smooth muscle) was 467 µM, the “relaxation effects on pre-contracted CC muscle strips” value (from here on “relaxation effects”) ([7]; icariin 10^−4M) was 23.12 ± 1.36% and the “relaxation effects” value ([7]; icariin 10^−5M) was 4.42±1.08%. For the same compound, the “relaxation effects” value ([7]; icariin 10^−6M) was 1.23±0.82%, the “relaxation effects” value ([7]; icariin 10^−7M) was 0.08±0.04% and the IC50 [8] was 0.432 µM. The “inhibiting potency on PDE5 weaker than that of Sildenafil” value [8] was 108.10 times, the “specificity of inhibition PDE5 compared to PDE4” value ([8]; ratio of IC50 PDE4/PDE5) was 170.14 times and the “nNOS mRNA compared to control Group B” value ([9]; Group C and D, p<0.05) was “significantly increased”. The “Mean conc./area (nNOS)” value ([9]; Group C, oral Icariin (mg/kg)) was 44.60, the “Ratio (nNOS/β-actin)” value ([9]; Group C, oral Icariin (mg/kg)) was 0.82* and the “Mean conc./area (nNOS)” value ([9]; Group D, oral Icariin 5 mg/kg) was 36.40. For the same compound, the “Ratio (nNOS/β-actin)” value ([9]; Group D, oral Icariin 5 mg/kg) was 1.08*, the “castrated rats restored sexual activities” value [10] was 83.3% and the cGMP concentration changes ([11]; 10^−3M) was 10.43 ± 1.49 fmol/mg/min. The cGMP concentration changes ([11]; 10^−4M) was 10.82 ± 1.58 fmol/mg/min, the cGMP concentration changes ([11]; 10^−5M) was 8.92 ± 1.67 fmol/mg/min and the cGMP concentration changes ([11]; 10^−6M) was 8.66 ± 2.03 fmol/mg/min. For the same compound, the “cGMP concentration in clitoris CC” value [12] was “significantly increased” and the EC50 ([12]; Oryctolagus cuniculus, read-out: EC50 (cGMP formation, CC of clitoris)) was 3.16 µM.
